Reference: patent US20160264536A1, “HETEROCYCLIC COMPOUND” (Takeda Pharmaceutical Company Limited, priority 2013, published 2016)

Target: T1, human PDE2A3 enzyme (Homo sapiens, UniProt O00408)
T1 construct: Human PDE2A3 full-length gene was transduced into Sf9; His-tag; made in house; host or cells: Sf9 insect cells
Test: PDE enzyme inhibitory assay (SPA, [3H]cGMP substrate)
Assay type: biochemical
Conditions: compound 1 μM, substrate [3H]cGMP 77 nM, read-out: inhibitory rate (%) (1 μM)
Experimental: PDE Enzyme Inhibitory Assay
Human PDE2A3 full-length gene was transduced into Sf9, and human PDE2A3 enzyme was purified by His-tag affinity column and gel filtration. The enzyme was stored at −70° C. until use. PDE activity was measured by using a SPA (Scintillation Proximity Assay) (GE Healthcare). To evaluate the inhibitory activity of the compound, 10 μl of serial diluted compounds were reacted with 20 μl of PDE enzyme in assay buffer (50 mM HEPES-NaOH, 8.3 mM MgCl2, 1.7 mM EGTA, 0.1% BSA (pH 7.4)) for 30 min at room temperature. Final concentration of DMSO in the reaction solution was 1%. Compounds were tested in duplicate in 96-well half-area plates (Corning) or 384-well OptiPlate (PerkinElmer). To start the reaction, 10 μl of substrate [^3H]cGMP (final concentration 77 nM, PerkinElmer) was added to a total volume of 40 μl. After reaction for 60 min at room temperature, 20 μl of 20 mg/mL yttrium SPA beads containing zinc sulfate was added to terminate the reaction. After being settled for further 1 hour, the assay plates were counted in a scintillation counter (PerkinElmer) to allow calculation of inhibition rate. Inhibition rate was calculated on the basis of 0% control wells with enzyme and DMSO, and 100% control wells without enzyme.

T1 sequence (O00408 whole entry): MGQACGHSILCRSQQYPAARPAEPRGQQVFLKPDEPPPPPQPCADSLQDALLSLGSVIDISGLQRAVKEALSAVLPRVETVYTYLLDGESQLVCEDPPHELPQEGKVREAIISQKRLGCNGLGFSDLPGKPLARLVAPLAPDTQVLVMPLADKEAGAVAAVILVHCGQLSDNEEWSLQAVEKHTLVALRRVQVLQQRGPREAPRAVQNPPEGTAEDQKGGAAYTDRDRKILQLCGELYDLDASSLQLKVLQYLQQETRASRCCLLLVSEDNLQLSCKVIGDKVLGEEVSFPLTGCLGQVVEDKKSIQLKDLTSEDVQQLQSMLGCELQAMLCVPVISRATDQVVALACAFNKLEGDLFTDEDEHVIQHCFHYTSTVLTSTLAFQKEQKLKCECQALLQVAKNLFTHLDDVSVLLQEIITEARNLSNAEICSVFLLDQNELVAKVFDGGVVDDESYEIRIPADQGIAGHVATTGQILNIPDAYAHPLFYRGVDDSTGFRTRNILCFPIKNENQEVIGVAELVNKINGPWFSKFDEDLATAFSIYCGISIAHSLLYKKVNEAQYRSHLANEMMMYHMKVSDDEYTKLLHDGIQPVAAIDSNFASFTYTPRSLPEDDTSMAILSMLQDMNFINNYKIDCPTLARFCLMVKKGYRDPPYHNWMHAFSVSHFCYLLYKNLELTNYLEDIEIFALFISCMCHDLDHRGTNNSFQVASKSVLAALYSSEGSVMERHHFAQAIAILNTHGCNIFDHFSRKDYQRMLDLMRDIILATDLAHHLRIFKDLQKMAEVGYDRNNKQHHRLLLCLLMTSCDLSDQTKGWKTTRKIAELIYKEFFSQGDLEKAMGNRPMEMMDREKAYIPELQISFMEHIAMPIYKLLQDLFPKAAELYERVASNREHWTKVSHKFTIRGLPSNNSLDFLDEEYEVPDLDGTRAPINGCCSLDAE

| inhibition at 1 µM [%] | Compound |
| --- | --- |
| 99 | COC[C@@H](NC(=O)c1cc(=O)[nH]c(-c2ncc(OC)cc2F)n1)c1ccc(OC(F)(F)F)c(F)c1 [Example 178, 2-(3-fluoro-5-methoxypyridin-2-yl)-N-((1S)-1-(3-fluoro-4-(trifluoromethoxy)phenyl)-2-methoxyethyl)-6-oxo-1,6-dihydropyrimidine-4-carboxamide] |
| 94 | COC[C@@H](NC(=O)c1cc(=O)[nH]c(-c2ncc(OC)cc2C)n1)c1ccc(OC(F)(F)F)c(F)c1 [Example 179, N-((1S)-1-(3-fluoro-4-(trifluoromethoxy)phenyl)-2-methoxyethyl)-2-(5-methoxy-3-methylpyridin-2-yl)-6-oxo-1,6-dihydropyrimidine-4-carboxamide] |
| 95 | COC[C@@H](NC(=O)c1cc(=O)[nH]c(-c2ncc(OC)cc2Cl)n1)c1ccc(OC(F)(F)F)c(F)c1 [Example 184, 2-(3-chloro-5-methoxypyridin-2-yl)-N-((1S)-1-(3-fluoro-4-(trifluoromethoxy)phenyl)-2-methoxyethyl)-6-oxo-1,6-dihydropyrimidine-4-carboxamide] |
| 92 | COC[C@@H](NC(=O)c1cc(=O)[nH]c(-c2ncc(OC(F)F)cc2F)n1)c1ccc(OC(F)(F)F)c(F)c1 [Example 186, 2-(5-(difluoromethoxy)-3-fluoropyridin-2-yl)-N-((1S)-1-(3-fluoro-4-(trifluoro-methoxy)phenyl)-2-methoxyethyl)-6-oxo-1,6-dihydropyrimidine-4-carboxamide] |

The remaining lines, values behind:

| Compound | inhibition at 1 µM [%] |
| --- | --- |
| COC[C@@H](NC(=O)c1cc(=O)[nH]c(C2=CCC(OC)C2)n1)c1ccc(OC(F)(F)F)c(F)c1 (stereo partly drawn) [Example 171, N-((1S)-1-(3-fluoro-4-(trifluoromethoxy)phenyl)-2-methoxyethyl)-2-(4-methoxycyclopent-1-en-1-yl)-6-oxo-1,6-dihydropyrimidine-4-carboxamide] | 103 |
| COC[C@@H](NC(=O)c1cc(=O)[nH]c(-c2ncc(C3CC3)cc2F)n1)c1ccc(OC(F)(F)F)c(F)c1 [Example 185, 2-(5-cyclopropyl-3-fluoropyridin-2-yl)-N-((1S)-1-(3-fluoro-4-(trifluoro-methoxy)phenyl)-2-methoxyethyl)-6-oxo-1,6-dihydropyrimidine-4-carboxamide] | 94 |
| CCOc1cnc(-c2nc(C(=O)N[C@H](COC)c3ccc(OC(F)(F)F)c(F)c3)cc(=O)[nH]2)c(OCC)c1 [Example 187, 2-(3,5-diethoxypyridin-2-yl)-N-((1S)-1-(3-fluoro-4-(trifluoromethoxy)phenyl)-2-methoxyethyl)-6-oxo-1,6-dihydropyrimidine-4-carboxamide] | 105 |
| COC[C@@H](NC(=O)c1cc(=O)[nH]c(-c2ncc(C3CC3)cc2OC)n1)c1ccc(OC(F)(F)F)c(F)c1 [Example 189, 2-(5-cyclopropyl-3-methoxypyridin-2-yl)-N-((1S)-1-(3-fluoro-4-(trifluoro-methoxy)phenyl)-2-methoxyethyl)-6-oxo-1,6-dihydropyrimidine-4-carboxamide] | 99 |
